{"source": "patent US20250032624A1", "about": "“SMALL MOLECULE DEGRADATION METHODS FOR TREATING ALS/FTD” (University of Florida Research Foundation, Incorporated, priority 2021, published 2025)", "key": {"[1]": {"test_system": "poly(GP)", "assay": "poly(GP) and β-actin by electrochemiluminescence assay in brain of +/+PWR500 mice", "type": "in vivo, mouse", "protocol": "(§1) A total of 20 age- and gender-matched mice (12 +/+PWR500 [5 Male and 7 Female] and 8 WT [4 Male and 4 Female]), ranging from 18-21 weeks old were used in therapeutic efficacy studies (Table 4). Mice were treated with a single bolus injection of 33 nmol of compound 2 formulated in 1% (v/v) DMSO/99% water, administered by an intracerebroventricular injection (ICV). Three weeks post injection, mice were euthanized, and tissue was harvested for study.\nPostmortem brain tissue was harvested and sliced along the sagittal plane at the midline. The left hemisphere was frozen for RNA and protein analysis. Frozen brain tissue was homogenized in 300 μL Tris-EDTA buffer with a 1:5 w/v ratio of 2× protease and phosphatase inhibitors, as was done for RNA analysis of the tissue. Half of the homogenized tissue (150 μL) was mixed with 2× Lysis Buffer (50 mM Tris, pH 7.4, 250 mM NaCl, 2% (v/v) Triton X-100, and 4% (w/v) SDS) and sonicated at 1 second on/off intervals at 30% for a total of 15 seconds. Detergent from was removed using a Pierce™ Detergent Removal Spin Column 0.5 mL (Thermo Scientific) according to the manufacturer's protocol. Protein concentrations were then measured by BCA assay (Pierce Biotechnology) and poly(GP) was measured as described above for the electrochemical luminescent sandwich immunoassay."}, "[2]": {"test_system": "r(GGCC)8", "assay": "Affinity by MST, base-paired control r(GGCC)8", "type": "binding", "conditions": "base-paired control r(GGCC)8, concentrations up to 20 μM", "protocol": "Affinity measurements were performed by MST using a Monolith NT.115 system (NanoTemper Technologies) with 5′-Cy5-labeled r(G4C2)8 (SEQ ID NO: 1), 5′-Cy5-labeled d(G4C2)8 (SEQ ID NO: 1), and 5′-Cy5-labeled base pair control r(G2C2)4GAAA(G2C2)4 (SEQ ID NO: 49). All oligos were deprotected according to the manufacturer's recommended protocol. Samples were prepared as previously described^30. Briefly, RNA or DNA (5 nM) was folded in 1×MST Buffer (8 mM Na2HPO4, 185 mM NaCl, 1 mM EDTA) by heating at 95° C. for 5 minutes and slowly cooling to room temperature. Tween-20 was then added to a final concentration of 0.05% (v/v). Serial dilutions of compound in 1×MST Buffer containing 5 nM folded nucleic acid were then carried out to yield the desired compound concentrations. Samples were incubated for 90 minutes at room temperature and then loaded into premium capillaries (NanoTemper Technologies). The following parameters were used on the Monolith NT.115 system: 10% LED, 20-80% MST power, Laser-On time=30 s, Laser-Off time=5 seconds. Fluorescence was detected using excitation wavelengths of 605-645 nm and emission wavelengths of 680-685 nm. The resulting data were analyzed by thermophoresis analysis and fit using the quadratic binding equation in the MST analysis software (NanoTemper Technologies). The dissociation constant was determined using Equation 1. […]"}, "[3]": {"test_system": "r(G4C2)^exp-containing foci", "assay": "RNA FISH of r(G4C2)exp-containing nuclear foci in cortex of +/+PWR500 mice", "type": "in vivo, mouse", "conditions": "+/+PWR500 mice vs vehicle", "protocol": "as §1\nPostmortem brain tissue was excised and sliced along the sagittal plane at the midline. The right hemisphere was flash frozen with Optimal Cutting Temperature (OCT) compound in 2-methylbutane in liquid nitrogen. Frozen tissue was sectioned ([…]) using a cryostat and slides were stained as previously described.^39 Briefly, frozen sections were fixed in 4% paraformaldehyde in 1×DPBS for 20 minutes then incubated in ice cold 70% ethanol at 4° C. for 30 minutes. Once fixed, slides were incubated for 10 minutes in 40% formamide in 2×SSC Buffer at room temperature. Slides were blocked in 1× Hybridization Buffer (40% formamide, 2×SSC Buffer, […] BSA, 100 mg/mL dextran sulfate, 250 μg/mL tRNA, and 2 mM vanadyl sulfate) for 30 minutes at 55° C. Slides were then incubated for 3 hours at 55° C. with 200 ng/mL of FISH probe (Table 1) in 1× Hybridization Buffer. […]"}, "[4]": {"test_system": "C9orf72 and transcriptome", "assay": "RNA-seq in c9ALS/FTD patient-derived iPSCs", "type": "cell-based, human", "protocol": "Total RNA integrity was confirmed by Agilent 2100 Bioanalyzer RNA nano chip, and the quantity was measured by Qubit 2.0 Fluorometer (Invitrogen). The library preparation was performed using NEBNext Ultra II Directional RNA kit (NEB, E7760) in combination with NEBNext rRNA depletion module (NEB, E6310) and RNA fragmentation module (NEB, E6150S), following manufacturer's recommendations. Briefly, a total of 200 ng RNA was first processed with depleted of ribosomal RNA, and then randomly fragmented to achieve range between 150 to 300 nucleotides. The fragmented RNAs were random primed for the first-strand synthesis, and the second strand was synthesized with dUTPs. The strand information is thus preserved by using USER enzyme (Uracil-specific excision reagent). The cDNA was PCR amplified and pooled equimolar to load onto the NextSeq 500 v2.5 flow cell and sequenced with 2×40 bp paired-end method. The output fastq files were aligned using STAR 3^5. The read counts of specific regions were extracted using samtools.^36 The global differential gene expression analysis was performed using featureCounts and Deseq2.^37,38"}}}
{"compound": "CCOC(=O)C1=C(Nc2ccccc2)S/C(=C\\c2ccc(OCCOCCOCCOCCNC(=O)CCCOc3ccc4c(c3)c3cc5c(C(=O)N[C@H](C)CN(C)C)nccc5c(C)c3n4C)c(O)c2)C1=O", "note": "[ALS Compound Formula I]", "values": [{"measurement": "β-actin abundance", "setting": "[1]; house-keeping protein", "result": "unaffected"}, {"measurement": "reduction of poly(GP)", "setting": "[1]; single ICV injection, 3 weeks", "result": "~40", "unit": "%"}, {"measurement": "saturable binding", "setting": "[2]", "result": "No saturable binding"}, {"measurement": "number of r(G4C2)^exp-containing foci in the nuclei of cortex neurons", "setting": "[3]", "result": "significantly reduced"}, {"measurement": "SOCS1 regulation by RNA-seq", "setting": "[4]", "result": "not found to be significantly down-regulated"}, {"measurement": "intron 1:exon 2 ratio", "setting": "[4]; 50 nM", "result": "significantly reduced"}, {"measurement": "off-targets transcriptome-wide", "setting": "[4]; 50 nM", "result": "minimal off-targets"}, {"measurement": "total C9orf72 read counts", "setting": "[4]; 50 nM", "result": "no effect"}]}
